Measurements taken from patent US20260364079A1 (Principia Biopharma Inc., priority 2022, published 2026).

Assays:
BTK = BTK (Homo sapiens, UniProt Q06187); conditions: healthy volunteers, cited from earlier work
[1] = Phase 2 trial; cited from earlier work
251 kinases = assay: broad kinase enzyme inhibition panel; format: biochemical; conditions: 1 μM
[2] = patients with chronic lymphatic leukemia; cited from earlier work
[3] = in vivo; cited from earlier work

Chain of BTK (Q06187 whole entry): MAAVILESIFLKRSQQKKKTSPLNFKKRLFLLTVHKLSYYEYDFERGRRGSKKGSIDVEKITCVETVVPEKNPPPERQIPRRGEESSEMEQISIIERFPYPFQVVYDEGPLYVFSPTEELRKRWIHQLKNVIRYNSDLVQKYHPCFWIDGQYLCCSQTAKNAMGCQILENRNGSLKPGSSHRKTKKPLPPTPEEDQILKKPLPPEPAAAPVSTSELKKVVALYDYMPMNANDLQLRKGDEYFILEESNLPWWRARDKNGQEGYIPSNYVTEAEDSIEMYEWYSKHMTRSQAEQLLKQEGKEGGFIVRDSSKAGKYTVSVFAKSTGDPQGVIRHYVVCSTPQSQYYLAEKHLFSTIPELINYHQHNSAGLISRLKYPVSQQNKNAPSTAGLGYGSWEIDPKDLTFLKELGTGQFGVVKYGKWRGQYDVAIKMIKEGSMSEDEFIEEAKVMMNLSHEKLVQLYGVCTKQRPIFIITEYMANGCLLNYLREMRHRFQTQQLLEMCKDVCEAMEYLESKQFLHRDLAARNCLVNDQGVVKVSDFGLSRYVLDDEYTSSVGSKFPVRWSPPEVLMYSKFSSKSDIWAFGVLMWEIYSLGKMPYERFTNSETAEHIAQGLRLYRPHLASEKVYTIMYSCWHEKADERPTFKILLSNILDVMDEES

For `C=CC(=O)Nc1cccc(Nc2nc(Nc3ccc(OCCOC)cc3)ncc2F)c1` [CC-292], the tolerability (BTK; doses with 100% occupancy) is given as “well tolerated” and the “occupancy of the BTK enzyme” value (BTK) is given as 100%.
For `C=CC(=O)N1CCC(CNc2ncnc(N)c2-c2ccc(Oc3ccccc3)cc2)CC1` [evobrutinib], the “efficacy in multiple sclerosis” value [1] is given as “demonstrated efficacy for multiple sclerosis”.
In the case of `C=CC(=O)N1CCC[C@@H](n2nc(-c3ccc(Oc4ccccc4)cc3)c3c(N)ncnc32)C1` [ibrutinib], the “number of kinases inhibited” value (251 kinases) is given as 21 kinases, the “sequential episodes of severe autoimmune hemolytic anemia and ITP” value [2] is given as “ceased after initiation of treatment with ibrutinib” and the “activity in other hematological malignancies” value [3] is given as “demonstrated activity in other hematological malignancies”.
